Data published in publication PMC5071162 (ACS chemical neuroscience, 2016).

Legend:
P-glycoprotein = settings: reported; cited from earlier work
GPR88 = settings: HTRF cAMP assay; ref 13 (Bi et al.); cited from earlier work
human GPR88 = human GPR88 (Homo sapiens, UniProt Q9GZN0); assay: Lance cAMP assay using stable PPLS-HA-GPR88 CHO cells; assay type: cell-based; settings: EC50
Sequence of human GPR88 (Q9GZN0 whole entry): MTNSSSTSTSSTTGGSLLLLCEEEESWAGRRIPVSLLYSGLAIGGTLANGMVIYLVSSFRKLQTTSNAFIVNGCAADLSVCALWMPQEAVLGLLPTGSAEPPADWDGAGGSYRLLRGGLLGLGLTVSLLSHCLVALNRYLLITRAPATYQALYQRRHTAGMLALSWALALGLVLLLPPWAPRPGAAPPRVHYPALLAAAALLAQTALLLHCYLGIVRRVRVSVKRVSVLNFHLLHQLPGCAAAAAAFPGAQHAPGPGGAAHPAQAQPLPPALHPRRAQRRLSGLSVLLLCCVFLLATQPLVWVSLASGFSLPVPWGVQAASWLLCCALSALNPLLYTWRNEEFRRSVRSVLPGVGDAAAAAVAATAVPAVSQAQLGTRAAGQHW

## CCCc1ccc(-c2ccc(N(C[C@@H](N)[C@@H](C)CC)C(=O)[C@@H]3C[C@H]3c3ccccn3)cc2)cc1 (relative stereo) [compound 1, (1R*,2R*)-2-(pyridin-2-yl)-cyclopropanecarboxylic acid ((2S,3S)-2-amino-3-methylpentyl)-(4′-propylbiphenyl-4-yl)-amide]
P-glycoprotein
  P-glycoprotein substrate: P-glycoprotein substrate

## CC[C@H](C)[C@H](N)CN(C(=O)[C@@H]1C[C@H]1c1ccccn1)c1ccc(-c2ccc(C(F)(F)F)cc2)cc1 (relative stereo) [5b, (1R*,2R*)-2-(Pyridin-2-yl)cyclopropanecarboxylic Acid [(2S,3S)-2-Amino-3-methylpentyl]-(4′-trifluoromethylbiphenyl-4-yl)amide]
Human GPR88
  EC50: 187 nM
